The results in this text go back to patent US20130012709A1, “NOVEL INHIBITORS OF STEAROYL-CoA-DESATURASE-1 AND THEIR USES” (CENTRE NATIONAL DE LA RECHERCHE SCIENTIFIQUE, priority 2009, published 2013).

Where two headings read alike, the source gives them in different places.

The subject of data set [1] is LNCaP cells. The experiment in a line: Flow cytometry analysis of cell cycle. Format: cell-based, human. The settings on record: 25 μM, 48 h; untreated cells 20. The protocol: (§1) Cells were then rinsed in PBS, pelleted at 400 g for 5 min and maintained on ice for 20 min before resuspension in a […] propidium iodide (Sigma) solution. Cells were kept overnight at 4° C. and the percentages of cells in G1, S and G2-M phases of the cell cycle were measured with a Coulter Epics XL™ flow cytometer (Becton Dickinson) using 488-nm laser excitation. For apoptosis experiment, MEFs were treated with the tested compound at 25 μM for 24 h, then rinced in PBS, pelleted at 400 g for 5 min and stained with annexinV-FITC (Roche Diagnostics, Meylan, France) for 15 min at 4° C. The percentage of annexin positive cells was immediately analysed using 488-nm laser excitation.

In data set [2] the test system is C4-2 cells. The experiment in a line: Flow cytometry analysis of cell cycle. The settings on record: 25 μM, 48 h; untreated cells 22. Format: cell-based, human. The protocol:
as §1

Data set [3] has as its system C4-2 cells. The experiment in a line: Proliferation by BrDU incorporation. The note with it: for % Inhibition of proliferation at 25 μM (BrDU) on C4-2: 48 h of treatment.
Experimental: (§2) LNCaP and C4-2 cells grown on coverslips were incubated for 4 hours with BrdU (100 μM final) at 24 hours and 48 hours following SCD-1 knock-down. Cells were then fixed and permeabilized with cold methanol for 10 min at −20° C. After 3 washes with PBS, DNA was denaturated with 4NHCL for 10 min at RT, and cells were incubated with blocking buffer (PBS-1% BSA). BrDU was then detected with anti-BrDU monoclonal antibody 1:50 (Dako, Carpinteria, Calif.) for 1 hour at 37° C. After 3 washes with PBS, cells were incubated with an FITC-conjugated anti-mouse secondary antibody 1:150 (Jackson Immunoresearch) for 30 min at 37° C., and slides were mounted in mowiol.
Data set [4] concerns C4-2 cells. The experiment in a line: MTT assay (cell viability). The settings on record: 48 h. Background: Tetrazolium dyes change colour on reduction, which living cells bring about.
Experimental: (§3) After 48 h, medium was removed and 250 μl of a 5 mg/ml MTT (Sigma, St Louis, Mo., USA) solution in PBS was added to each well. After 4 h incubation at 37° C., the MTT solution was removed, 200 μl of DMSO (Sigma) was added and cells were incubated for 5 min. Two hundred microliters of each samples was distributed in 96-well plates for an optical density reading at 540 nm.
A further data set deals with SCD1 mRNA and protein. The experiment in a line: SCD-1 knock-down by siRNA, mRNA and protein expression. The data set is classed as cell-based, human. The protocol:
For small interfering (si) RNA experiments, transfection of LNCaP or C4-2 cells was carried out with pre-designed ON-TARGET plus siRNA oligonucleotides control or targeting the human SCD-1 sequence GCACAUCAACUUCACCACA (Dharmacon, Lafayette, Co, USA).
Nucleofaction of cells with 2.5 μg siRNA were performed on 2×10^6 cells using Amaxa nucleofactor R kit (Lonza, Cologne, Germany). Twenty-four hours and 48 hours after transfection, cells were processed for cell proliferation by BrdU staining and harvested for RNA and protein analysis.
RNA was extracted with the use of TRI-Reagent (Euromedex, Mundolsheim, France) according to the manufacturers' recommendations. Reverse transcription of total RNA was performed at 37° C. using the M-MLV reverse transcriptase (Invitrogen) and random hexanucleotide primers (Promega, Madison, Wis.), followed by a 15 min inactivation at 70° C. Quantitative PCR was conducted using the primers specific for human SCD1 and SYBR Green Light Cycler Master Mix (Eurofins MWG Operon, Roissy CDG). […] Values are expressed as the relative mRNA level of specific gene expression as obtained using the formula 2^−(ΔCt).

Data set [5] has as its system LNCaP cells. The experiment in a line: Proliferation by BrDU incorporation. Format: cell-based, human. The settings on record: for % Inhibition of proliferation at 25 μM (BrDU) on LNCaP: 48 h of treatment.
Experimental: as §2
In data set [6] the test system is C4-2 cells.
Experimental: as §3

As usually defined, the melting point is the temperature of the solid-liquid transition. Consider `COc1ccc(Br)c(C(=O)N2CCN(S(=O)(=O)c3ccc(F)cc3)CC2)c1` [Example 2, 1-[(2-bromo-5-methoxybenzoyl)]-4-[(4-fluorophenyl)sulfonyl]piperazine], for which the melting point worked out at 202 °C. Also, the “% LNCaP cells in phase S at 25 μM” value in the data set with LNCaP cells [1] is given as 5%. Moreover, in the data set with C4-2 cells [2], the “% C4-2 cells in phase S at 25 μM” value came out at 11.8%. In the data set on C4-2 cells [3] (Homo sapiens, C4-2, 48 h, read-out: % Inhibition of proliferation at 25 μM (BrDU) on C4-2), the inhibition at 25 µM amounted to 37.2 ± 8.8%. In the data set on C4-2 cells [4], the “Viable C4-2 cells at 25 μM (% of control)” value was 49 % of control.
For the molecule “siRNA: pre-designed ON-TARGET plus siRNA oligonucleotides targeting the human SCD-1 sequence GCACAUCAACUUCACCACA (Dharmacon) (chemistry not given here) [reference compound]”, the “proliferation after SCD-1 knock-down” value with C4-2 cells [3] (C4-2, siRNA) is listed as “marked decrease”; with LNCaP cells [5] (LNCaP, siRNA), “marked decrease”. Further, the “SCD1 mRNA and protein expressions” value with SCD1 mRNA and protein is reported as “blocked”.
On to `COc1ccc(Br)c(C(=O)N2CCN(S(=O)(=O)c3ccc(F)cc3F)CC2)c1` [Example 12, 1N-[(2-bromo-5-methoxybenzoyl)]-4N-[(2, 4 difluorophenyl)sulfonyl]piperazine], for which the “% Inhibition of proliferation at 25 μM (BrDU) on C4-2” value in the data set on C4-2 cells [3] is on record as 55.2 ± 0.5%. In addition, the “% Inhibition of proliferation at 25 μM (BrDU) on LNCaP” value in the data set on LNCaP cells [5] is 60.6%. Moreover, the “Viable C4-2 cells at 25 μM (% of control)” value in the data set on C4-2 cells [6] is given as 70 % of control.
Consider `COc1ccc(Br)c(C(=O)N2CCN(S(=O)(=O)c3ccccc3C(F)(F)F)CC2)c1` [Example 8, 1N-[(2-bromo-5-methoxybenzoyl)]-4N-[(2-trifluoromethylphenyl)sulfonyl]piperazine], for which the “% Inhibition of proliferation at 25 μM (BrDU) on C4-2” value in the data set on C4-2 cells [3] is reported as 84.4 ± 8.5%. Also, the “% Inhibition of proliferation at 25 μM (BrDU) on LNCaP” value in the data set with LNCaP cells [5] was 40.1%. In addition, the “Viable C4-2 cells at 25 μM (% of control)” value in the data set with C4-2 cells [6] is reported as 73 % of control.
The corresponding values for `COc1ccc(Br)c(C(=O)N2CCN(S(=O)(=O)c3cccc(F)c3)CC2)c1` [Example 15, 1N-[(2-bromo-5-methoxybenzoyl)]-4N-[(3-fluorophenyl)sulfonyl]piperazine] are 35.7 ± 6%, 0% and 83 % of control.
